PubChem BioAssay AID1259407 (Chemical Carcinogenesis Research Information System (CCRIS), 2018)
Active and inactive are the calls of the source. How the calls were made is not given here.

Tested on: CCRIS mutagenicity, Ames/micronucleus/aberration tests
Experiment: CCRIS mutagenicity studies
[1] = Test System: AMES SALMONELLA TYPHIMURIUM, Strain/Indicator: TA98, Metabolic Activation: NONE, Method: PREINCUBATION
[2] = Test System: AMES SALMONELLA TYPHIMURIUM, Strain/Indicator: TA100, Metabolic Activation: NONE, Method: PREINCUBATION
[3] = Test System: AMES SALMONELLA TYPHIMURIUM, Strain/Indicator: TA100, Metabolic Activation: NONE, Method: STANDARD PLATE
[4] = Test System: AMES SALMONELLA TYPHIMURIUM, Strain/Indicator: TA1535, Metabolic Activation: NONE, Method: PREINCUBATION
[5] = Test System: AMES SALMONELLA TYPHIMURIUM, Strain/Indicator: TA1537, Metabolic Activation: NONE, Method: PREINCUBATION

With `Clc1ccccc1Cl` the mutagenic call (End Point: IN VITRO CHROMOSOMAL ABERRATIONS, Test System: CHO-LB CELLS, Metabolic Activation: NONE) was “inactive; negative”, the mutagenic call (End Point: IN VITRO CHROMOSOMAL ABERRATIONS, Test System: CHO-LB CELLS, Metabolic Activation: RAT, LIVER, S-9, AROCLOR 1254) was “inactive; negative” and the mutagenic call (Test System: AMES SALMONELLA TYPHIMURIUM, Strain/Indicator: TA98, Metabolic Activation: HAMSTER, LIVER, S-9, AROCLOR 1254, Method: PREINCUBATION) was “inactive; negative”. For the same molecule, the mutagenic call [1] was “inactive; negative”, the mutagenic call (Test System: AMES SALMONELLA TYPHIMURIUM, Strain/Indicator: TA98, Metabolic Activation: NONE, Method: STANDARD PLATE) was “inactive; negative” and the mutagenic call (Test System: AMES SALMONELLA TYPHIMURIUM, Strain/Indicator: TA98, Metabolic Activation: RAT, LIVER, S-9, AROCLOR 1254, Method: PREINCUBATION) was “inactive; negative”. For the same molecule, the mutagenic call (Test System: AMES SALMONELLA TYPHIMURIUM, Strain/Indicator: TA98, Metabolic Activation: RAT, LIVER, S-9, AROCLOR, Method: STANDARD PLATE) was “inactive; negative”, the mutagenic call (Test System: AMES SALMONELLA TYPHIMURIUM, Strain/Indicator: TA100, Metabolic Activation: HAMSTER, LIVER, S-9, AROCLOR 1254, Method: PREINCUBATION) was “inactive; negative” and the mutagenic call [2] was “inactive; negative”. For the same molecule, the mutagenic call [3] was “inactive; negative”, the mutagenic call (Test System: AMES SALMONELLA TYPHIMURIUM, Strain/Indicator: TA100, Metabolic Activation: RAT, LIVER, S-9, AROCLOR 1254, Method: PREINCUBATION) was “inactive; negative” and the mutagenic call (Test System: AMES SALMONELLA TYPHIMURIUM, Strain/Indicator: TA100, Metabolic Activation: RAT, LIVER, S-9, AROCLOR, Method: STANDARD PLATE) was “inactive; negative”. For the same molecule, the mutagenic call (Test System: AMES SALMONELLA TYPHIMURIUM, Strain/Indicator: TA1535, Metabolic Activation: HAMSTER, LIVER, S-9, AROCLOR 1254, Method: PREINCUBATION) was “inactive; negative”, the mutagenic call [4] was “inactive; negative” and the mutagenic call (Test System: AMES SALMONELLA TYPHIMURIUM, Strain/Indicator: TA1535, Metabolic Activation: RAT, LIVER, S-9, AROCLOR 1254, Method: PREINCUBATION) was “inactive; negative”. The mutagenic call (Test System: AMES SALMONELLA TYPHIMURIUM, Strain/Indicator: TA1537, Metabolic Activation: HAMSTER, LIVER, S-9, AROCLOR 1254, Method: PREINCUBATION) was “inactive; negative”, the mutagenic call [5] was “inactive; negative” and the mutagenic call (Test System: AMES SALMONELLA TYPHIMURIUM, Strain/Indicator: TA1537, Metabolic Activation: RAT, LIVER, S-9, AROCLOR 1254, Method: PREINCUBATION) was “inactive; negative”. For the same molecule, the mutagenic call (Test System: AMES SALMONELLA TYPHIMURIUM, Strain/Indicator: UTH8413, Metabolic Activation: NONE, Method: STANDARD PLATE) was “inactive; negative”, the mutagenic call (Test System: AMES SALMONELLA TYPHIMURIUM, Strain/Indicator: UTH8413, Metabolic Activation: RAT, LIVER, S-9, AROCLOR, Method: STANDARD PLATE) was “inactive; negative” and the mutagenic call (Test System: AMES SALMONELLA TYPHIMURIUM, Strain/Indicator: UTH8414, Metabolic Activation: NONE, Method: STANDARD PLATE) was “inactive; negative”. The mutagenic call (Test System: AMES SALMONELLA TYPHIMURIUM, Strain/Indicator: UTH8414, Metabolic Activation: RAT, LIVER, S-9, AROCLOR, Method: STANDARD PLATE) was “inactive; negative”.
`CC(=O)Nc1nc2c3cccnc3cc(C)c2n1C` was tested, and the mutagenic call (Test System: AMES SALMONELLA TYPHIMURIUM, Strain/Indicator: TA98(1,8-DNP6), Metabolic Activation: RAT, LIVER, S-9, Method: STANDARD PLATE) was “inactive; negative”, the mutagenic call (Test System: AMES SALMONELLA TYPHIMURIUM, Strain/Indicator: TA98(NR), Metabolic Activation: RAT, LIVER, S-9, Method: STANDARD PLATE) was “active; positive” and the mutagenic call (Test System: AMES SALMONELLA TYPHIMURIUM, Strain/Indicator: TA98, Metabolic Activation: RAT, LIVER, S-9, Method: STANDARD PLATE) was “active; positive”. For the same molecule, the mutagenic call (Test System: AMES SALMONELLA TYPHIMURIUM, Strain/Indicator: TA98, Method: STANDARD PLATE) was “active; positive”.
For `O=C(OC[C@@H]1CO1)c1ccc([N+](=O)[O-])cc1`, the mutagenic call [3] was “active; positive”.
`CC[C@@]1(O)C(=O)OCc2c1cc1n(c2=O)Cc2cc3c(CN(C)C)c(O)ccc3nc2-1` was tested, and the mutagenic call (Test System: CHINESE HAMSTER V-79, Strain/Indicator: V-79 (HPRT)/6-THIOGUANINE, Metabolic Activation: NONE) was “active; positive”.
With `CN1CCN(N=O)CC1` the mutagenic call (Test System: CHINESE HAMSTER V-79, Strain/Indicator: V-79/8-AZAGUANINE, Metabolic Activation: RAT, LIVER, S-15, PHENOBARBITAL, Method: STANDARD PLATE) was “active; positive”.
For `Cc1c(N)ccc(N=Nc2ccccc2)c1N`, the mutagenic call (Test System: AMES SALMONELLA TYPHIMURIUM, Strain/Indicator: TA100, Metabolic Activation: HUMAN, LIVER, S-9, Method: PREINCUBATION) was “active; positive”, the mutagenic call (Test System: AMES SALMONELLA TYPHIMURIUM, Strain/Indicator: TA100, Metabolic Activation: RAT, LIVER, S-9, BETA-NAPHTHOFLAVONE, Method: PREINCUBATION) was “active; positive” and the mutagenic call (Test System: AMES SALMONELLA TYPHIMURIUM, Strain/Indicator: TA100, Metabolic Activation: RAT, LIVER, S-9, PHENOBARBITAL, Method: PREINCUBATION) was “active; positive”. The mutagenic call (Test System: AMES SALMONELLA TYPHIMURIUM, Strain/Indicator: TA100, Metabolic Activation: RAT, LIVER, S-9, Method: PREINCUBATION) was “active; positive” and the mutagenic call (Test System: UDS RODENT HEPATOCYTES, Strain/Indicator: THY INCORP, Metabolic Activation: NONE, Method: AUTORADIOGRAPHY) was “active; positive”.
`Nc1ccc(O)c(C(=O)O)c1` was tested, and the mutagenic call [1] was “inactive; negative”, the mutagenic call (Test System: AMES SALMONELLA TYPHIMURIUM, Strain/Indicator: TA98, Metabolic Activation: S-9, Method: PREINCUBATION) was “inactive; negative” and the mutagenic call [2] was “inactive; negative”. The mutagenic call (Test System: AMES SALMONELLA TYPHIMURIUM, Strain/Indicator: TA100, Metabolic Activation: S-9, Method: PREINCUBATION) was “inactive; negative”, the mutagenic call [4] was “inactive; negative” and the mutagenic call (Test System: AMES SALMONELLA TYPHIMURIUM, Strain/Indicator: TA1535, Metabolic Activation: S-9, Method: PREINCUBATION) was “inactive; negative”. The mutagenic call [5] was “inactive; negative”, the mutagenic call (Test System: AMES SALMONELLA TYPHIMURIUM, Strain/Indicator: TA1537, Metabolic Activation: S-9, Method: PREINCUBATION) was “inactive; negative” and the mutagenic call (Test System: E. COLI, Strain/Indicator: WP2 UVRA, Metabolic Activation: NONE, Method: PREINCUBATION) was “inactive; negative”. The mutagenic call (Test System: E. COLI, Strain/Indicator: WP2 UVRA, Metabolic Activation: S-9, Method: PREINCUBATION) was “inactive; negative”.
`Cc1cc(C)cc([N+](=O)[O-])c1` was tested, and the mutagenic call [1] was “inactive; negative”, the mutagenic call (Test System: AMES SALMONELLA TYPHIMURIUM, Strain/Indicator: TA98, Metabolic Activation: RAT, LIVER, S-9, KANECHLOR 500, Method: PREINCUBATION) was “inactive; negative” and the mutagenic call [2] was “inactive; negative”. For the same molecule, the mutagenic call (Test System: AMES SALMONELLA TYPHIMURIUM, Strain/Indicator: TA100, Metabolic Activation: RAT, LIVER, S-9, KANECHLOR 500, Method: PREINCUBATION) was “inactive; negative”.
With `Nc1ccc(N=Nc2ccc(N=Nc3c(S(=O)(=O)O)cc4c(c3N)C(=O)/C(=N\Nc3ccc(N=Nc5ccc(N)cc5N)cc3)C(S(=O)(=O)O)=C4)cc2)c(N)c1` the mutagenic call (Test System: AMES SALMONELLA TYPHIMURIUM, Strain/Indicator: TA1538, Metabolic Activation: NONE, Method: STANDARD PLATE) was “inactive; negative” and the mutagenic call (Test System: AMES SALMONELLA TYPHIMURIUM, Strain/Indicator: TA1538, Metabolic Activation: RAT, LIVER, S-9, AROCLOR 1254, Method: STANDARD PLATE) was “active; positive”.
